Data reported in patent US9428539B2, “2β,3α,5α-trihydroxy-androst-6-one and preparation methods and use thereof” (Guangzhou Cellprotek Pharmaceutical Co., Ltd., priority 2013, dated 2016).

What was measured:
retinal ganglion cell [1] = test: Optic nerve clamping injury model, retinal ganglion cell death; type: in vivo; details: rats; 20 mg/kg via tail vein 20 min before surgery, 2 h post operation, Day 2, Day 3; pathological examination at Day 7
Method: 10% chloral hydrate was used to anesthetize rats. YC-10 (20 mg/kg) or solvents were administered via tail vein 20 min before surgery. Eyes were subject to topical anesthesia. Conjunctiva was cut along limbus cornea with corneal scissors and intraocular microforceps. Lateral rectus was bluntly dissected to fully expose optic nerve. A cross action forceps was used to clamp the optic nerve for 5 seconds at 2 mm posterior to the eyeball, and then released. Antibiotic eye ointment was applied post operation to prevent infection. Drugs were administered at 2 h post operation, Day 2, and Day 3. Eyeballs were obtained for pathological examination at Day 7.

LN18 cells = test: MTT cell survival assay, LN18 cells; type: cell-based; details: 250, 500, 1000 μM, 24 h post treatment, P<0.05 vs control
Method: (§1) Cell seeding and treatment: Logarithmic phase of LN18 and DBTRG-50MG cells were prepared to cell suspensions with complete medium. Cells were seeded into a 96-well plate at a density of 100 μl per well, 3×10^4/ml. 12 h post seeding, full cell adherence was observed. To the wells was added YC-10 to a final concentration of YC-10 being 250, 500, and 1000 μM, with each concentration group having 5 repeats.
(§2) Reaction of MTT with succinate dehydrogenase: At 24th h of culturing, 10 μl (5 mg/ml) of MTT was added to each well, followed by 4 h incubation. At this time, granulate violet formazan crystalline can be observed in live cells by microscopy.
(§3) Formazan particle dissolution: Supernatant was carefully discharged. To the wells was added DMSO at 100 μl/well to dissolve the crystalline. The mixture was vibrated on a mini oscillator for 5 min and measured for optical density (OD value) at 570 nm for each well by enzyme-linked immunometric assay.
(§4) Each group of experiments was repeated 3 times.
(§5) Survival (%)=OD value in treatment group/OD value in control group*100%.
(§6) All data was presented as mean±SD. SPSS 13.0 statistics package software was used. One-Way ANOVA and t-test were used to analyze the data. Sigmaplot software was used to give FIG. 1.

retinal ganglion cell [2] = test: Eye high pressure and ischemia injury model, retinal ganglion cell death; type: in vivo; details: rats; 20 mg/kg via tail vein before modeling, 2 h, Day 2, Day 3; 130 mmHg, 1 h ischemia; pathological examination at Day 7
Method: 10% chloral hydrate was used to anesthetize rats. Eyes were subject to topical anesthesia. Perfusion apparatus was placed 176 cm above rats' eyeballs (resulting in 130 mmHg intra-ocular pressure). 30 G ½ syringe needle was carefully inserted into anterior chamber. The eyeballs became white and starting time of ischemia was recorded. 1 h post ischemia, the syringe needle was quickly withdrawn and eyes were cared by antibiotic eyedrops. Rats were raised back to cage. Drugs were administered 20 before modeling for solvent group and YC-10 group (20 mg/kg). At 2 h, Day 2 and Day 3 post modeling, rats were treated with YC-10 via tail vein. At Day 7 post modeling, eyeballs were obtained for pathological examination.

[3] = tested on: cerebellar granule neurons; test: Low potassium-induced death of cerebellar granule neurons (FDA staining); type: cell-based; details: 50 μM, 5K (5 mM KCl) BME medium, 24 h
Method: Cerebellar granule neurons were cultured in vitro for 8 days. Treatment groups received YC-10 at various concentrations and incubated for 30 min. Following that, model group and all treatment groups were replaced with 5K (i.e., 5 mM KCl) BME medium (25K BME for control group), and added with YC-10 at respective concentrations. Cells were incubated at 37° C. for 24 h, followed by FDA staining.

KM mice = test: Maximal tolerance dose test; type: in vivo
Method: YC-10 injections at concentration of 25 mg/mL were prepared with 40% hydroxypropyl cyclodextrin, and were injected through tail vein to 30 KM mice (half males and half females, weighted 18-22 g) at does of 0.1 mL/10 g.
The mice were continuously observed. All mice behaved and ate as usual, with bright coat color and fine fur. No abnormal secretions in mouth, eyes, nose, or ears were observed. Mice defecated normally. Mice weights were slighted increase. No mice died. Mice were sacrificed after 14 days, dissected and visual examined on important organs such as heart, liver, spleen, kidney, and gastrointestinal. No abnormal changes were observed.

[4] = tested on: cerebellar granule neurons; test: Glutamate-induced damage of cerebellar granule neurons (FDA staining); type: cell-based; details: glutamate 100 μM, glycine 10 μM, Mg2+-free Locke buffer; 30 min pre-incubation; FDA staining after 24 h
Method: Cerebellar granule neurons cultured in vitro for 8 days were grouped. Treatment groups received MK801 or YC-10 at various concentrations, followed by incubation for 30 min. Following that, model group and all treatment groups were replaced with Mg^2+-free Locke buffer, and added with glutamate (100 μM final concentration), Glycine (10 μM final concentration) and drugs at respective concentrations. Cells were incubated at 37° C. for 30 minutes, replaced with original medium, incubated for further 24 h, followed by FDA staining.

DBTRG-50MG cells = test: MTT cell survival assay, DBTRG-50MG cells; type: cell-based; details: 250, 500, 1000 μM, 24 h post treatment, P<0.05 vs control
Method: as §1, §2, §3, §4, §5, §6

Compound | protection of retinal ganglion cell from optic nerve clamping injury-induced death (retinal ganglion cell [1]) | cell survival rate (tumor cell killing) (LN18 cells) | protection of retinal ganglion cell from eye high pressure and ischemia-induced death (retinal ganglion cell [2]) | protection of cerebellar granule neurons from low potassium-induced death [3] | toxicity to mouse (behaviour, weight, organ examination) (KM mice; 250 mg/kg tail vein injection in 40% hydroxypropyl cyclodextrin, observed 14 days) | mortality (KM mice; 250 mg/kg tail vein injection, 14 days) | protection of cerebellar granule neurons from glutamate-induced damage [4] | cell survival rate (tumor cell killing) (DBTRG-50MG cells)
C[C@@]12CCCC1C1CC(=O)[C@@]3(O)C[C@H](O)[C@@H](O)C[C@]3(C)C1CC2 (stereo partly drawn) [YC-10, 2β,3α,5α-trihydroxy-androst-6-one] | slow down or prevent from clamping injury-induced death | killed tumor cells in a dose-dependent manner | reduce or prevent from ischemia-induced death | could prevent neuron from low potassium-induced death | nontoxic | No mice died | effective in preventing glutamate-induced excitotoxin damage of cerebellar granule neurons in a dose-dependent manner | killed tumor cells in a dose-dependent manner
C[C@]12N[C@H](Cc3ccccc31)c1ccccc12 [MK801, reference compound] | – | – | – | – | – | – | able to prevent cerebella granule neurons from glutamate-induced injury | –
